Test results reported in patent US20240285497A1, “METHOD FOR EVALUATING AN ABILITY OF A TEST SAMPLE TO TRIGGER A FOREIGN BODY REACTION IN THE SKIN, A METHOD FOR SCREENING A SUBSTANCE HAVING AN ABILITY TO INHIBIT A FOREIGN BODY REACTION IN THE SKIN, AND AN AGENT FOR INHIBITING A FOREIGN BODY REACTION IN THE SKIN” (priority 2021, published 2024).
Marks after values point to notes of the source that are not given here.

Experiments:
[1] = tested on: human liver cancer-derived cell line HepG2 cells; conditions: cited from earlier work
XRE-NLuc::HaCaT cells = assay: in vitro; conditions: read-out: LC50; XRE-NLuc::HaCaT cells, median lethal concentration
Description: After the above-described incubation for 24 hours, the number of cells in each well was counted by a colorimetric method based on the degradation of tetrazolium salt (WST-1) by mitochondrial dehydrogenase in viable cells. Specifically, 3 μL of Premix WST-1 (Product Name “Premix WST-1 Cell Proliferation Assay System”; Takara Bio Inc., Shiga, Japan; Catalogue No.: MK400) was added to each well of 96 well plates, and then the cells were cultured for 1 hour at 37° C., 5% CO2. Thereafter, 93 μL of cell culture supernatant was removed from each well to measure the absorbance of the supernatant in each well. The removed supernatants were transferred to transparent 96 well plates, and then the absorbance at 450 nm (A450) and, as a reference wavelength, the absorbance at 670 nm (A670) were measured using iMark microplate reader (Bio-Rad; Catalogue No.: 168-1130JA). A value (A450-A670) was obtained by subtracting the absorbance at 670 nm (A670) from the absorbance at 450 nm (A450). The relative viable cell count (%) was expressed as a relative value with the value (A450-A670) obtained for the negative control as 100%.
The ability of each test sample to trigger a foreign body reaction was evaluated using XRE-NLuc::HaCaT cells in the same manner as in Experiment 1-2, except that I3C (Indole-3-carbinol, CAS RN: 700-06-1), ITE (2-(1′H-indole-3′-carbonyl)-thiazole-4-carboxylic acid methyl ester, CAS RN: 448906-42-1), and Indirubin (CAS RN: 479-41-4) were used instead of FICZ as test samples and the amount of each test sample added to the DMEM medium was appropriately changed.

[2] = tested on: matrix metalloprotease 2 (MMP2) mRNA; assay: MMP2 mRNA expression in HaCaT cells contacted with test substance, quantitative PCR; assay type: cell-based, human; conditions: 1 μM, 10 μM and 100 μM, HaCaT cells, 24 hours
Description: In this experiment, the effect of Fraglide-1 on the expression of MMP9 in the level of mRNA was examined first. Specifically, HaCaT cells were treated with Fraglide-1 in the same manner as described in Experiment 3-1 except that HaCaT cells were incubated for 24 hours in the medium containing 0 μM, 1 μM, 10 μM, and 100 μM of Fraglide-1 instead of being incubated for 24 hours in the medium containing both FICZ and Fraglide-1. The total RNA was then extracted, cDNA was prepared, and the quantitative PCR was performed using the obtained cDNA. Herein, the procedure of the quantitative PCR was the same as described in Experiment 3-1 except that the primers shown in below Table 4 were used. In this experiment, the expression of MMP2 mRNA was also quantified in addition to MMP9 mRNA. MMP2 is known as a MMP which is not transcriptionally regulated by a xenobiotic responsive element (XRE). […]
Next, experiments were performed to inhibit MMP9 and MMP2 in HaCaT cells using retinoic acid (CAS RN: 302-79-4) and nicotinamide (CAS RN: 98-92-0), which are known to be substances having anti-wrinkle effect. […] Then, the total RNA was extracted, cDNA was prepared, and the quantitative PCR was carried out using the obtained cDNA. […]

| Molecule | Literature Value Maximum Effective concentration Max. Induction [1] | CC50 (XRE-NLuc::HaCaT cells) [µM] | MMP2 mRNA expression [2] |
| --- | --- | --- | --- |
| 6-formylindolo[3,2-b] carbazole [FICZ] | 1** μM | > 5 |  |
| O=C1C=C(c2ccccc2)C(O)O1 (stereo not drawn) [Fraglide-1, 5-hydroxy-4-phenyl-2(5H)butenolide] |  |  | no decrease in the mRNA expression was observed |
